Assay results: article PMC10766943, “Synthesis, characterization, Hirshfeld surface analysis, antioxidant and selective β-glucuronidase inhibitory studies of transition metal complexes of hydrazide based Schiff base ligand” (Scientific Reports, 2024)

Legend:
[1] = system: β-glucuronidase; conditions: cited from earlier work
[2] = biological target: T1, β-glucuronidase enzyme (Bos taurus, UniProt A3KMY8); assay: β-Glucuronidase inhibitory activity (p-nitrophenyl-β-D-glucuronide, 405 nm); format: biochemical; conditions: Conc. 0.05 mM
T1 sequence (A3KMY8 24-652): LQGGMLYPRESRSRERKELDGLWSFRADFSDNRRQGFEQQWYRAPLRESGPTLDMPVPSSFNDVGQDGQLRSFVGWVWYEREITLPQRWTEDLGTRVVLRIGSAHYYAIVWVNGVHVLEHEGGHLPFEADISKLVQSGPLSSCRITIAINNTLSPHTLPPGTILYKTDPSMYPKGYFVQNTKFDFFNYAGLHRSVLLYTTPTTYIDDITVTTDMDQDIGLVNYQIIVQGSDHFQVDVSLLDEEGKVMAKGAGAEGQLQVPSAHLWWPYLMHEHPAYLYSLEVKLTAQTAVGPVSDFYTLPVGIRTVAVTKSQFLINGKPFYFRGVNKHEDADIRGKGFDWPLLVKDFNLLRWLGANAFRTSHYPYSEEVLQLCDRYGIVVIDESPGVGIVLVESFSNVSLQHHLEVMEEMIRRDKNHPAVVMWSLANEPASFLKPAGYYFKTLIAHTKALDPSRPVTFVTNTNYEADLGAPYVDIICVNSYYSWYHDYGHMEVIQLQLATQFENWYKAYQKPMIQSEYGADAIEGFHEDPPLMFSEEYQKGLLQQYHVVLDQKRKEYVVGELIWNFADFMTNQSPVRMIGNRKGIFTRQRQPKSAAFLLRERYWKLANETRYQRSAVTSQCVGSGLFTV
Method: β-Glucuronidase inhibitory activity by hydrazide Schiff base ligand (H-AHMB) and its metal (II) complexes was investigated using standard procedure. […] According to the procedure 185 µL of 0.1 M acetate buffer, 5 µL compound to be tested and 10 µL of enzyme solution were mixed and incubated at 37 °C for 30 min. SpectraMax plus 384, Molecular Devices, USA was used to read on a multiplate reader at 405 nm after the addition of 0.4 mM p-nitrophenyl-β-D-glucuronide (50 µL). All experiments were performed in triplicate.

[3] = DPPH radical scavenging; conditions: for IC50: DPPH scavenging
Method: The synthetic Schiff base ligand and its metal complexes were tested for their ability to scavenge DPPH radicals using the methodology described by Soare, Dinis, Cunha, and Almeida in 1997[64]. Initially, 1 mL of 0.2 mM DPPH dissolved in methanol was combined with 0.1 mL of each sample at 250, 500, 750, and 1000 µg/mL concentrations. For 20 min, the reaction mixture was kept at 28 °C and kept in the dark. Methanol served as the control, which had all the components but no sample. A UV/Vis spectrophotometer was used to detect the absorbance at 517 nm in order to assess the DPPH radical scavenging activity. For comparison, the DPPH radical scavenging capacity of ascorbic acid was also determined. %Inhibitioneffect=Ac-As/Ac×100
Ac = Absorbance by the control, As = Absorbance by the sample[37].

[4] = DPPH radical scavenging; conditions: Conc. 0.05 mM

| Compound | inhibition of the β-glucuronidase enzyme [1] | % inhibition [2] [%] | IC50 [3] [µM] | % Radical scavenging activity [4] [%] | antioxidant potential against DPPH free radicals (in words) [3] |
| --- | --- | --- | --- | --- | --- |
| CC(=O)O[C@@H]1C(=O)O[C@H]2[C@@H]1OC(=O)[C@@H]2OC(C)=O [2,5-di-O-acetyl-D-glucaro-1,4:6,3-Dilactone] | marked inhibition |  |  |  |  |
| O=C[C@H](O)[C@H]1OC(=O)[C@@H](O)[C@H]1O [D-glucurono-γ-lactone] | marked inhibition |  |  |  |  |
| O=C1OC(C(O)C(=O)O)C(O)C1O [D-saccharic acid-1,4-lactone, reference compound] |  | 89.4 |  |  |  |
| O=C(O)c1cc(O)c(O)c(O)c1 [Gallic acid, reference compound] |  |  | 63 ± 0.43 | 93.13 |  |
| COc1cc(C=NNC(=O)c2ccccc2N)ccc1O [H-AHMB, N′-[(4-hydroxy-3-methoxyphenyl)methylidene] 2-aminobenzohydrazide] |  |  |  | 22.97 | inactive |
| Cobalt adduct with N′-[(4-hydroxy-3-methoxyphenyl)methylidene] 2-aminobenzohydrazide [Co-AHMB] |  | 78.8 | 98.2 ± 1.78 | 88.46 |  |
| Copper adduct with N′-[(4-hydroxy-3-methoxyphenyl)methylidene] 2-aminobenzohydrazide [Cu-AHMB] |  | 73.3 | 183 ± 6.6 | 84.29 |  |
| Nickel adduct with N′-[(4-hydroxy-3-methoxyphenyl)methylidene] 2-aminobenzohydrazide [Ni-AHMB] |  | 96.0 | 467 ± 2.9 | 52.40 |  |
| Zinc adduct with N′-[(4-hydroxy-3-methoxyphenyl)methylidene] 2-aminobenzohydrazide [Zn-AHMB] |  | 98.3 |  | 49.16 |  |
